Series [1] in a line: DPPH scavenging activity assay. The class given is biochemical. Particulars: compared among six synthesized peptides and with ascorbic acid 0.5 mM. The protocol:
A straightforward and expeditious approach for quantifying the antioxidant activity of antioxidants involves employing the 2,2-diphenyl-1-picrylhydrazyl (DPPH) assay, a spectrophotometric technique[36]–[38]. Preparation of the test sample, reagent, and control sample in the DPPH assay is as follows: peptide samples with a concentration of 10 mg/mL were prepared in ethanol and then were diluted in 2, 4, 6, and 8 mg/L concentrations. The DPPH solution is prepared with a concentration of 0.02% (w/v) in methanol. A solution of 0.5 mM ascorbic acid has been prepared as a positive control, and methanol is considered as the negative control sample. The peptide sample (250 μL) with DPPH solution (250 μL) in ethanol (1.0 mL) was mixed and stirred in the dark for 30 min at room temperature. The solutions were analyzed using a UV–Vis instrument (Varian, Cary 100) at 517 nm. The calculation of antioxidant activity percentage is reported as the following equation:1 DPPH scavenging activity%=A0-A1/A0×100.
In Eq. (1), A0 is the absorbance of the negative control (methanol) and A1 is the optical absorbance of the peptide samples.

The next series has as its system red blood cells (RBCs). Briefly: Hemolysis assay. Format: cell-based, human. Particulars: 0.1% SDS + distilled water; 4 h room temperature; absorbance 450 nm. The protocol: The hemolysis test was performed as standard protocol. A 1.5 mL heparin blood sample was obtained from a healthy volunteer in our laboratory. The red blood cells (RBCs) were collected by centrifugation of blood samples at 3000 rpm for 15 min and then were washed three times with PBS. The RBC pellet was resuspended in a 10 mL phosphate-buffer solution (PBS). A 100 µL/well of different concentrations of peptides were added into a 96-well plate (2000 µg/mL, 1000 µg/mL, 500 µg/mL, 250 µg/mL, 125 µg/mL, 62.5 µg/mL, 31.25 µg/mL, 15.62 µg/mL, 7.8 µg/mL). For positive hemolysis control 100 µL/well of 0.1% sodium dodecyl sulfate and distilled water, and for negative hemolysis control 100 µL/well of PBS were added into the appropriated wells. After that, 100 µL RBC suspension was added into all the wells. The plate was incubated at room temperature for 4 h. Then the 100 µL supernatant of each well was carefully transferred to a new 96-well plate. The solution absorbance was investigated by a UV–Vis instrument at 450 nm.

Series [2] can be described thus: Hydroxyl radical scavenging activity assay. Format: biochemical. Particulars: positive control, 0.5 mM solution; UV-Vis 510 nm. The text has this: Hydroxyl radical is one of the strong reactive oxygen species in biological systems that react with the unsaturated fatty acid of phospholipids of the cell membrane and cause cell damage[36]–[38]. To assess the efficacy of peptides in countering hydroxyl radicals, we subjected them to a hydroxyl radical-scavenging activity assay, indicating their scavenging potential across a range of concentrations. The method for preparing the test samples, reagents, and control samples for the hydroxyl scavenging activity assay is as follows: initially, peptide samples at 10 mg/mL concentration were dissolved in ethanol, and subsequently, diluted concentrations of 2, 4, 6, and 8 mg/L were obtained from this solution. The assay reagent includes 6 mM hydrogen peroxide and 6 mM ferrous sulfate in ethanol. A solution of ascorbic acid with 0.5 mM concentration has been prepared as a positive control and a solution without the peptide sample is considered as negative control. […] After 30 min, the UV–Vis absorbance was determined at 510 nm. The determination of hydroxyl radical scavenging activity for the peptide samples was executed as follows:2 Hydroxyl radical scavenging activity%=A0-A1/A0×100, where A0 is the absorbance of the negative control (solution without the peptide sample) and A1 is the absorbance of the peptide samples.

In the case of “YWHW [GP9, ML-generated antioxidant peptide YWHW, synthesized]”, the “DPPH free radical scavenging activity, in words” value in series [1] was “highest free radical scavenging activity”.
Regarding `CCCCCCCCCCCCOS(=O)(=O)[O-].[Na+]` [SDS, sodium dodecyl sulfate], the “Hemolysis, OD value of positive control” value in the series with red blood cells (RBCs) was 2.21.
As to `O=C1O[C@H]([C@@H](O)CO)C(O)=C1O` [ascorbic acid], in series [2], the “Hydroxyl radical scavenging activity” value amounted to 93.9%.
On to “YWYHF [GP10, ML-generated antioxidant peptide YWYHF, synthesized]”, for which, in series [1], the “DPPH free radical scavenging activity, in words” value was “highest free radical scavenging activity”.
In the case of “LHHWY [GP12, ML-generated antioxidant peptide LHHWY, synthesized]”, the “DPPH free radical scavenging activity, in words” value in series [1] is reported as “highest free radical scavenging activity”.
